Here are results for four compounds from patent EP0785714B2, “ANTIMICROBIAL COMPOSITION” (Moberg, Sven, priority 1994, dated 1996).

Where two headings read alike, the source gives them in different places.

Series [1] concerns Staphylococcus aureus. The series can be described thus: MIC of propylene glycol alone and mixed with lactic acid. It is filed as cell-based. Particulars: propylene glycol (100%) alone. From the text:
(§1) The minimal inhibitory concentration (MIC) for propylene glycol (100%) tested on the bacterium Staphylococcus aureus and the dermophyte Tricophyton rubrum dropped from 8 % to 0.15 % and 0.38 % respectively if lactic acid was mixed with propylene glycol in the ratios 3:10 or 2:3. The composition gave a minimal inhibitory effect at concentration 0.25% and 0.5 % respectively. These MIC-values should be compared with the considerably higher MIC-values of 40 %, which were obtained when propylene glycol at 20 % was combined with aluminium acetotartrate (SE 8802257-9). […] Also other concentration ratios gave stronger but not optimum effect. The antimicrobial effects were not proportionate to the degree of acidity (pH).

For a further series, the system named is Tricophyton rubrum. Described as above. It is filed as cell-based. The conditions noted are these: propylene glycol (100%) alone.
From the text: as §1

The next series concerns fungi and bacteria. Particulars: in vitro, cited from earlier work; for antimicrobial effect on comparison: 30 % diol.
Another series has as its system Pityrosporum ovale. Particulars: 50 % aqueous solution; cited from earlier work.
A further series relates to Candica albicans. The series can be described thus: MIC-plate determination (agar dilution), agents A1 and A2. Type of series: cell-based. Particulars: clinical isolate. The method, then: (§2) A determination of the minimum inhibitory concentration (MIC) was carried out for different compositions of acid/glycol on different microorganisms.
(§3) The components included in the composition were weighed with decimal precision. A dilution series in sterile destilled water was made where the completed composition is dilution 1. Dilution 2 is 50 % of the composition, dilution 3 is 25 % etc. One thus gets a series of 100 - 50 - 25 - 12.5 - 6.3- 3.1 - 1.6 - 0.8 - 0.4 - 0.2 - 0.1 %. To said dilutions the same amount (volume) of Oxoids Isosensitest agar was added at 62.4 g medium per litre.
(§4) The Isosensitest agar is prepared and sterilized according to the maker's instructions. […] Furthermore a plate without the composition was prepared, called a blanc plate. From the different mixtures MIC-plates are moulded in sterile Petri dishes. From each agent a suspension was made corresponding to MacFarland 1. From this 0.2 ml was added to each MIC-plate and the blanc plate with a pipette. The MIC-plates were incubated in a thermostat having an optimum temperature for the agent. The MIC-value is the concentration of the composition on the MIC-plate where growth has stopped completely. Example. Agent 1 grows in 0.1 %, 0.2 %, 0.4 %, On the 0.8 %-plate the growth is weak but visible.
Background: In agar dilution the substance is mixed into plates at graded concentrations.

In the next series the test system is Malassezia furfur. The series can be described thus: MIC-plate determination (agar dilution), agent B1. The conditions noted are these: agent B1, Malassezia furfur (Pityrosporum ovale). It is filed as cell-based. The protocol: as §2, §3, §4
A further series concerns Pityrosporum orbiculare. The series can be described thus: MIC-plate determination (agar dilution), agent B2. Type of series: cell-based. Particulars: agent B2, Pityrosporum orbiculare (Pityrosporum ovale). The protocol:
as §2, §3, §4

In the next series the test system is Trichophyton rubrum. The series can be described thus: MIC-plate determination (agar dilution), agents C1 and C2. Type of series: cell-based. The conditions noted are these: clinical isolate. The method, then: as §2, §3, §4
For another series, the system named is Aspergillus niger. The series can be described thus: MIC-plate determination (agar dilution), agents D1 and D2. Type of series: cell-based. The conditions noted are these: clinical isolate. The method, then:
as §2, §3, §4

The test system of series [2] is Staphylococcus aureus. The series can be described thus: MIC-plate determination (agar dilution), agents E1 and E2. Type of series: cell-based. The conditions noted are these: clinical isolate. The method, then: as §2, §3, §4
The next series deals with Streptococcus pyogenes. The series can be described thus: MIC-plate determination (agar dilution), agents F1 and F2. It is filed as cell-based. Particulars: clinical isolate. The protocol: as §2, §3, §4
Another series concerns Pseudomonas aeruginosa. The series can be described thus: MIC-plate determination (agar dilution), agents G1 and G2. The conditions noted are these: clinical isolate. It is filed as cell-based. The protocol:
as §2, §3, §4

A short description of series [3]: pH in the various MIC plates. Type of series: physicochemical. The method, then: as §3, §4

For the compound `CC(O)CO` (stereo not drawn) [Composition 1, Propylene glycol], the “minimal inhibitory concentration (MIC) for propylene glycol” value in the series on Staphylococcus aureus [1] and in the series with Tricophyton rubrum was 8% throughout. In addition, in the series with fungi and bacteria, the “antimicrobial effect on comparison” value is listed as “about as effective as 10 % hexylene glycol”. In addition, the “effect against Pityriasis versicolor” value in the series with Pityrosporum ovale is listed as “effective”.
With `OCCCCO` [Composition 2, Butylene glycol], in the series with fungi and bacteria, the “antimicrobial effect on comparison” value is recorded as “about as effective as 10 % hexylene glycol”.
In the case of `CC(O)CC(C)(C)O` (stereo not drawn) [Composition 3], the MIC-value in the series with Candica albicans (agent A1, Candica albicans) was 6.3%; against Candica albicans (agent A2, Candica albicans), 6.3%; against Malassezia furfur it was 25%; with Pityrosporum orbiculare, 25%; against Trichophyton rubrum (agent C1, Trichophyton rubrum), 0.8%; against Trichophyton rubrum (agent C2, Trichophyton rubrum) it was 0.8%. Besides, the MIC-value stood at 6.3% with Aspergillus niger (agent D1, Aspergillus niger); 6.3% in the series on Aspergillus niger (agent D2, Aspergillus niger); 12.5% with Staphylococcus aureus [2] (agent E1, Staphylococcus aureus); 12.5% against Staphylococcus aureus [2] (agent E2, Staphylococcus aureus); 12.5% with Streptococcus pyogenes (agent F1, Streptococcus pyogenes); 12.5% with Streptococcus pyogenes (agent F2, Streptococcus pyogenes). Moreover, the MIC-value against Pseudomonas aeruginosa (agent G1, Pseudomonas aeruginosa) was determined as 1.6%; in the series with Pseudomonas aeruginosa (agent G2, Pseudomonas aeruginosa), 3.1%. Besides, the “pH in the MIC plate” value in series [3] (MIC-plate 0.05 (% composition in Isosensitest agar)), in series [3] (MIC-plate 0.1 (% composition in Isosensitest agar)), in series [3] (MIC-plate 0.2 (% composition in Isosensitest agar)), in series [3] (MIC-plate 0.4 (% composition in Isosensitest agar)), in [3] (MIC-plate 0.8 (% composition in Isosensitest agar)) and in series [3] (MIC-plate 1.6 (% composition in Isosensitest agar)) was 7 throughout. Also, the “pH in the MIC plate” value in series [3] (MIC-plate 3.1 (% composition in Isosensitest agar)), in series [3] (MIC-plate 6.3 (% composition in Isosensitest agar)), in series [3] (MIC-plate 12.5 (% composition in Isosensitest agar)), in series [3] (MIC-plate 25 (% composition in Isosensitest agar)) and in series [3] (MIC-plate 50 (% composition in Isosensitest agar)) was 7 throughout.
Hexylene glycol [Composition 3]: the antimicrobial effect entry in the series with fungi and bacteria (1 % of the agent) is reported as “lacked effect”; with fungi and bacteria (5 % hexylene glycol), “a certain antimicrobial effect”; in the series with fungi and bacteria (10-30 % hexylene glycol), “showed antimicrobial effect within 20 hours”.
